Where two headings read alike, the source gives them in different places. Marks after values point to notes of the source that are not given here.
Key:
[1] = Crude glycerin in finishing cattle diets: animal performance (weight, ADG, DMI, gain/feed); format: in vivo, Angus-cross steers; conditions: for Average Daily Gain / Dry Matter Intake / Gain/Feed, ×100 / Weight: 10% DM glycerin
Method: All cattle were adapted on a common 4-step transition prior to initiation of the evaluation. Cattle were blocked by weight (4 blocks) with four pens per treatment (9-10 head/pen). […] Individual weights were collected at 28-day intervals throughout with steers terminated on three harvest dates (days on feed 116 to 153 days) based on weight and condition. Six monthly periods and cumulative (d 1-116 and 1-153) periods were analyzed.

[2] = Glycerin as feed ingredient for lactating dairy cattle; format: in vivo, lactating Holstein cows; conditions: for Estimated Net Energy for Lactation (of the entire diet): calculated from energy output in milk and body weight increase
Method: In another embodiment, an evaluation was conducted to assess practical energy value of using glycerin as a feed ingredient for lactating dairy cattle. […] Diets were balanced to meet energy requirements based on the control diet, be isonitrogenous, and balanced to meet or exceed requirements for all other nutrients. The basal ration contained corn silage, alfalfa haylage, hay, high-moisture corn, vitamins, and minerals, and was formulated to contain about 17% CP, 6.5% RUP, and 10.5 RDP (DM basis).

[3] = Methanol concentration of stored crude glycerin; format: physicochemical; conditions: stored in sealed totes approximately 5 months, analyzed in duplicate; certificate of analysis 800 ppm
From the text: A subset of ten cattle (5 from each treatment) were used for baseline and withdrawal sampling of rumen fluid and blood plasma for residual methanol quantification. […] Withdrawal samples were collected from the same subset of animals.

[4] = lambs
From the text: Lambs received a common receiving ration for one week prior to allotment. Lambs were blocked by weight (4 blocks) and fed in individual crates for […]. […] Initial and final weights were collected on consecutive days and an interim weight was taken on day 14. Periods were: 1) days 1 to 14, 2) days 15 to 29, and 3) cumulative (days 1 to 29).

[5] = Day 1-28, DDGS:Soy Hulls 10:0 diet (Treatment 2)
[6] = Day 1-28, DDGS:Soy Hulls 30:15 diet (Treatment 4)
[7] = Day 1-28, main effect over both diets
[8] = Day 1-116, DDGS:Soy Hulls 10:0 diet (Treatment 2)
[9] = Day 1-116, DDGS:Soy Hulls 30:15 diet (Treatment 4)
[10] = Day 1-116, main effect over both diets
[11] = Day 1-153, DDGS:Soy Hulls 10:0 diet (Treatment 2)
[12] = Day 1-153, DDGS:Soy Hulls 30:15 diet (Treatment 4)
[13] = Day 1-153, main effect over both diets
[14] = Day 29-56, DDGS:Soy Hulls 10:0 diet (Treatment 2)
[15] = Day 29-56, DDGS:Soy Hulls 30:15 diet (Treatment 4)
[16] = Day 29-56, main effect over both diets
[17] = Day 57-84, DDGS:Soy Hulls 10:0 diet (Treatment 2)
[18] = Day 57-84, DDGS:Soy Hulls 30:15 diet (Treatment 4)
[19] = Day 57-84, main effect over both diets
[20] = Day 85-116, DDGS:Soy Hulls 10:0 diet (Treatment 2)
[21] = Day 85-116, DDGS:Soy Hulls 30:15 diet (Treatment 4)
[22] = Day 85-116, main effect over both diets
[23] = Day 117-132, DDGS:Soy Hulls 10:0 diet (Treatment 2)
[24] = Day 117-132, DDGS:Soy Hulls 30:15 diet (Treatment 4)
[25] = Day 117-132, main effect over both diets
[26] = Day 133-153, DDGS:Soy Hulls 10:0 diet (Treatment 2)
[27] = Day 133-153, DDGS:Soy Hulls 30:15 diet (Treatment 4)
[28] = Day 133-153, main effect over both diets
[29] = high co-product diets with glycerin

OCC(O)CO [crude glycerin, glycerin]
Average Daily Gain [1, 5]: 1.46^a kg/hd/d
Dry Matter Intake [1, 5]: 7.97^c kg/hd/d
Gain/Feed, ×100 [1, 5]: 18.27^a
Average Daily Gain [1, 6]: 1.31^ab kg/hd/d
Dry Matter Intake [1, 6]: 8.34^bc kg/hd/d
Gain/Feed, ×100 [1, 6]: 15.64^b
Average Daily Gain [1, 7]: 1.38 kg/hd/d
Dry Matter Intake [1, 7]: 8.16 kg/hd/d
Gain/Feed, ×100 [1, 7]: 16.96
Average Daily Gain [1, 8]: 1.30 kg/hd/d
Dry Matter Intake [1, 8]: 8.31^c kg/hd/d
Gain/Feed, ×100 [1, 8]: 15.66^a
Average Daily Gain [1, 9]: 1.27 kg/hd/d
Dry Matter Intake [1, 9]: 8.95^b kg/hd/d
Gain/Feed, ×100 [1, 9]: 14.28^b
Average Daily Gain [1, 10]: 1.29 kg/hd/d
Dry Matter Intake [1, 10]: 8.63 kg/hd/d
Gain/Feed, ×100 [1, 10]: 14.97
Average Daily Gain [1, 11]: 1.27^a kg/hd/d
Dry Matter Intake [1, 11]: 8.37^c kg/hd/d
Gain/Feed, ×100 [1, 11]: 15.21^a
Average Daily Gain [1, 12]: 1.21^ab kg/hd/d
Dry Matter Intake [1, 12]: 8.99^b kg/hd/d
Gain/Feed, ×100 [1, 12]: 13.43^b
Average Daily Gain [1, 13]: 1.24 kg/hd/d
Dry Matter Intake [1, 13]: 8.68 kg/hd/d
Gain/Feed, ×100 [1, 13]: 14.32
Weight ([1]; Day 28, DDGS:Soy Hulls 10:0 diet (Treatment 2)): 428.2^a kg
Weight ([1]; Day 28, DDGS:Soy Hulls 30:15 diet (Treatment 4)): 423.9^ab kg
Weight ([1]; Day 28, main effect over both diets): 426.1 kg
Average Daily Gain [1, 14]: 1.53 kg/hd/d
Dry Matter Intake [1, 14]: 8.78^c kg/hd/d
Gain/Feed, ×100 [1, 14]: 17.43^a
Average Daily Gain [1, 15]: 1.66 kg/hd/d
Dry Matter Intake [1, 15]: 9.95^b kg/hd/d
Gain/Feed, ×100 [1, 15]: 16.78^a
Average Daily Gain [1, 16]: 1.60 kg/hd/d
Dry Matter Intake [1, 16]: 9.36 kg/hd/d
Gain/Feed, ×100 [1, 16]: 17.10
Weight ([1]; Day 56, DDGS:Soy Hulls 10:0 diet (Treatment 2)): 471.2 kg
Weight ([1]; Day 56, DDGS:Soy Hulls 30:15 diet (Treatment 4)): 470.5 kg
Weight ([1]; Day 56, main effect over both diets): 470.9 kg
Average Daily Gain [1, 17]: 1.29 kg/hd/d
Dry Matter Intake [1, 17]: 8.84^b kg/hd/d
Gain/Feed, ×100 [1, 17]: 14.64
Average Daily Gain [1, 18]: 1.25 kg/hd/d
Dry Matter Intake [1, 18]: 9.37^b kg/hd/d
Gain/Feed, ×100 [1, 18]: 13.36
Average Daily Gain [1, 19]: 1.27 kg/hd/d
Dry Matter Intake [1, 19]: 9.11 kg/hd/d
Gain/Feed, ×100 [1, 19]: 14.00
Weight ([1]; Day 84, DDGS:Soy Hulls 10:0 diet (Treatment 2)): 507.3 kg
Weight ([1]; Day 84, DDGS:Soy Hulls 30:15 diet (Treatment 4)): 505.4 kg
Weight ([1]; Day 84, main effect over both diets): 506.4 kg
Average Daily Gain [1, 20]: 0.97 kg/hd/d
Dry Matter Intake [1, 20]: 7.74^c kg/hd/d
Gain/Feed, ×100 [1, 20]: 12.47
Average Daily Gain [1, 21]: 0.93 kg/hd/d
Dry Matter Intake [1, 21]: 8.25^bc kg/hd/d
Gain/Feed, ×100 [1, 21]: 11.22
Average Daily Gain [1, 22]: 0.95 kg/hd/d
Dry Matter Intake [1, 22]: 8.00 kg/hd/d
Gain/Feed, ×100 [1, 22]: 11.84
Weight ([1]; Day 116, DDGS:Soy Hulls 10:0 diet (Treatment 2)): 538.3 kg
Weight ([1]; Day 116, DDGS:Soy Hulls 30:15 diet (Treatment 4)): 535.1 kg
Weight ([1]; Day 116, main effect over both diets): 536.7 kg
Average Daily Gain [1, 23]: 1.46 kg/hd/d
Dry Matter Intake [1, 23]: 8.67^ab kg/hd/d
Gain/Feed, ×100 [1, 23]: 17.25
Average Daily Gain [1, 24]: 1.26 kg/hd/d
Dry Matter Intake [1, 24]: 9.54^ab kg/hd/d
Gain/Feed, ×100 [1, 24]: 12.86
Average Daily Gain [1, 25]: 1.36 kg/hd/d
Dry Matter Intake [1, 25]: 9.11 kg/hd/d
Gain/Feed, ×100 [1, 25]: 15.06
Weight ([1]; Day 132, DDGS:Soy Hulls 10:0 diet (Treatment 2)): 552.8 kg
Weight ([1]; Day 132, DDGS:Soy Hulls 30:15 diet (Treatment 4)): 548.8 kg
Weight ([1]; Day 132, main effect over both diets): 550.8 kg
Average Daily Gain [1, 26]: 1.39^a kg/hd/d
Dry Matter Intake [1, 26]: 8.48 kg/hd/d
Gain/Feed, ×100 [1, 26]: 16.48^a
Average Daily Gain [1, 27]: 0.90^b kg/hd/d
Dry Matter Intake [1, 27]: 9.42 kg/hd/d
Gain/Feed, ×100 [1, 27]: 9.35^b
Average Daily Gain [1, 28]: 1.15 kg/hd/d
Dry Matter Intake [1, 28]: 8.95 kg/hd/d
Gain/Feed, ×100 [1, 28]: 12.92
Weight ([1]; Day 153, DDGS:Soy Hulls 10:0 diet (Treatment 2)): 570.5 kg
Weight ([1]; Day 153, DDGS:Soy Hulls 30:15 diet (Treatment 4)): 548.0 kg
Weight ([1]; Day 153, main effect over both diets): 559.3 kg
Cumulative ADG better [1, 29]: 2.5%
cumulative DMI lower [1, 29]: 11.8%
cumulative gain: feed better [1, 29]: 16.4%
Cumulative ADG greater ([1]; high-grain diets with glycerin): 11.4%
cumulative DMI lesser ([1]; high-grain diets with glycerin): 8.1%
cumulative gain: feed greater ([1]; high-grain diets with glycerin): 21.9%
Cumulative ADG ([1]; steers fed diets containing 10% crude glycerin (main effect)): 1.24 kg/day
dry matter intake (DMI) ([1]; steers fed diets with added glycerin (main effect), cumulative): 8.68 kg/day
Body Weight change ([2]; 5% glycerin fed (DM basis)): 89.6^ab lbs.
Body condition score change ([2]; 5% glycerin fed (DM basis)): 0.1
Feed intake ([2]; 5% glycerin fed (DM basis)): 53.9 lb/day
Milk production ([2]; 5% glycerin fed (DM basis)): 81.2 lb/day
Milk urea Nitrogen ([2]; 5% glycerin fed (DM basis)): 10.9^b mg/dl
Somatic Cell Count ([2]; 5% glycerin fed (DM basis)): 490 1000 cells/ml
Estimated Net Energy for Lactation (of the entire diet) ([2]; 5% glycerin fed (DM basis)): 1.55 mcal/kg
Body Weight change ([2]; 10% glycerin fed (DM basis)): 109.3^b lbs.
Body condition score change ([2]; 10% glycerin fed (DM basis)): 0.1
Feed intake ([2]; 10% glycerin fed (DM basis)): 54.1 lb/day
Milk production ([2]; 10% glycerin fed (DM basis)): 82.1 lb/day
Milk urea Nitrogen ([2]; 10% glycerin fed (DM basis)): 10.7^b mg/dl
Somatic Cell Count ([2]; 10% glycerin fed (DM basis)): 137 1000 cells/ml
Estimated Net Energy for Lactation (of the entire diet) ([2]; 10% glycerin fed (DM basis)): 1.57 mcal/kg
Body Weight change ([2]; 15% glycerin fed (DM basis)): 113.5^b lbs.
Body condition score change ([2]; 15% glycerin fed (DM basis)): 0.1
Feed intake ([2]; 15% glycerin fed (DM basis)): 53.0 lb/day
Milk production ([2]; 15% glycerin fed (DM basis)): 80.0 lb/day
Milk urea Nitrogen ([2]; 15% glycerin fed (DM basis)): 10.2^b mg/dl
Somatic Cell Count ([2]; 15% glycerin fed (DM basis)): 144 1000 cells/ml
Estimated Net Energy for Lactation (of the entire diet) ([2]; 15% glycerin fed (DM basis)): 1.58 mcal/kg
methanol concentration of crude glycerin samples [3]: 756 ppm
Final weight ([4]; 0 to 20% crude glycerin): not significantly different
morbidity and mortality, treatment effects ([4]; 0 to 20% crude glycerin): treatment effects were not different
cumulative DMI ([4]; 5% crude glycerin): 1.26 kg/day
cumulative DMI ([4]; 10% crude glycerin): 1.21 kg/day
cumulative DMI ([4]; 15% crude glycerin): 1.27 kg/day
cumulative DMI ([4]; 20% crude glycerin): 1.20 kg/day
Cumulative ADG ([4]; days 1 to 29, 5% crude glycerin): 0.40 kg/day
Cumulative ADG ([4]; days 1 to 29, 10% crude glycerin): 0.36 kg/day
Cumulative ADG ([4]; days 1 to 29, 15% crude glycerin): 0.39 kg/day
Cumulative ADG ([4]; days 1 to 29, 20% crude glycerin): 0.36 kg/day
palatability ([4]; levels of up to 20% dry matter (DM) inclusion): not a concern

— patent US20080260896A1 (priority 2007, published 2008)
